# “Also recorded” adds a separate entry of the source. *1 amine or outer side, *2 acyl side, *3 side chain or, on linkers, in order; H or OH if unused. Where a SMILES comes first, the peptide text is derived from it. Bridges are numbered along the chain shown (N, C = ends). [ ]: non-standard residue; d: D form. The star is where a group is joined. X1 = CC[C@H](C)[C@@H](N[*:1])[C@@H](O)CC(=O)O[C@H](C(=O)[C@H](C)C(=O)[*:2])C(C)C; NMeY = CN[C@@H](Cc1ccc(O)cc1)C(=O)O; dNMeL = CN[C@H](CC(C)C)C(=O)O; Pyruvoyl = CC(=O)C(=O)*
# Tests used:
# [1] = system: p38, ERK and JNK phosphorylation in HeLa-APL-R cells expressing eEF1A2-GFP; assay: Signaling (Western blot) in HeLa-APL-R expressing eEF1A2-GFP; type: cell-based, human; settings: plitidepsin 450 nM
# Protocol: (§1) (A) HeLa and HeLa-APL-R cells were stably transfected with an expression vector encoding for eEF1A2-GFP fusion protein. Clones homogeneously expressing the GFP were selected. The levels of expression of eEF1A2 were analyzed by Western blot using specific antibodies. The position of the endogenous and the GFP-fusion proteins are indicated. […] Levels of expression attained after transfection were similar to the endogenous levels. […] Concentration-response curves were performed at 72 h. Cell growth was determined by the MTT method and expressed as percentage of control cell survival.
# (§2) For transfection and selection of cell clones, HeLa and HeLa-APL-R cells were seeded in 24 well plates at 40% confluence and allowed to stand for 24 hours at 37 °C and 5% CO2. Before transfection, the culture medium was changed to Opti-MEM (Life Technologies, Carlsbad, CA, USA). Plasmids encoding eEF1A2-GFP were incubated with Lipofectamine (Life Technologies, Carlsbad, CA, USA) under the recommendations of the manufacturer and added to the cell medium. After 24 h incubation at 37 °C and 5% CO2, the culture medium was replaced by the standard DMEM supplemented with 2 mg/ml of G-418 for the selection of clones expressing the exogenous gene. Clones were further selected following the expression of the GFP-fused protein through fluorescence microscopy.
# [2] = system: HeLa cervical cancer cells; design: method as in PMID 15365569; settings: HeLa parental cells, 72 h, Fig. 1A; reported as previously described; cited from earlier work
# [3] = system: HeLa cells ectopically overexpressing eEF1A2-GFP; assay: Antiproliferative activity in HeLa overexpressing eEF1A2-GFP; type: cell-based, human; settings: HeLa overexpressing eEF1A2-GFP (Supplementary Figure 1)
# Protocol: as §2
# LEGENDS TO SUPPL EMENTARY FI GURES
# HeLa and HeLa-APL -R cells.
# autofluorescence AF (grey).
# GFP at different concentrations identified in the phasor plot.
# Supplementary Figure 3. FRET efficiency estimation from FRET “Dn” and FRET
# of incubation with 10 nM plitidepsin- DMAC. Clusters of phasors corresponding to the […]
# [4] = system: sphingosine kinase-1 (SK1); assay: Direct effect on SK1; type: biochemical; settings: preliminary, data not shown
# [5] = system: eEF1A2 in HeLa protein extract; assay: DARTS assay (subtilisin digestion of HeLa protein extract); type: binding, human; settings: plitidepsin 1 h, subtilisin 30 min, room temperature, Western blot
# Protocol: (A) Saturation binding curve. […] (B) Dissociation kinetics of [14C]-plitidepsin from eEF1A2.
# Each sample was then digested with subtilisin for 30 min at room temperature.
# Protein extracts from HeLa cells were obtained by treating them with lysis buffer (see above) and kept on ice for 15 min. Cell extracts were cleared by centrifugation at 14,000 × g for 15 min at 4 °C. […] Extracts were digested with the indicated concentrations of Subtilisin (EC 3.4.21.62) for 30 min at RT. […] Quantitation of the eEF1A2 bands was performed with the Image Lab v5.2.1 software (Bio-Rad, Hercules, CA, USA).
# [6] = system: signaling events in HeLa-APL-R cells; settings: HeLa-APL-R versus parental HeLa; cited from earlier work
# Description: In contrast, HeLa cells ectop ...
# [7] = system: human leukemic cells; settings: cited from earlier work
# Description: The high affinity of this interaction is in consonance with the nanomolar antiproliferative potency of this compound, also observed in many previous reports (for a review see ref. [10]).
# [8] = system: NCI-H460 non-small cell lung cancer cells; assay: Cell growth inhibition (MTT, 72 h), NCI-H460; type: cell-based; settings: parental NCI-H460, 72 h
# Protocol: HeLa cervix adenocarcinoma (ATCC CCL-2), K-562 chronic myelogenous leukemia (ATCC CCL-243), NCI-H460 lung cancer (ATCC HTB-177) and HGC27 gastric cancer (ATCC CRL-2506) cells were obtained from ATCC (Manassas, VA, USA) and cultured following standard procedures. Viability assays were performed utilizing 3-(4,5-dimethylthiazol-2-yl)-2,5-diphenyltetrazolium bromide (MTT) according to methods described elsewhere[46].
# [9] = system: HeLa-APL-R cells stably transfected with eEF1A2-GFP; assay: Antiproliferative activity in HeLa-APL-R stably transfected with eEF1A2-GFP; type: cell-based, human; settings: 72 h, MTT
# Protocol: as §1, §2
# [10] = system: subcellular and chromatographic fractions of K-562 cell lysate; assay: Binding of [14C]-plitidepsin to K-562 lysate fractions
# Protocol: Figure 4 Identification of the plitidepsin-binding protein in a K-562 cells lysate. […] In the horizontal axis “P” and “S” mean “pellet” and “supernatant”, respectively, with the figure aside denoting the relative centrifugal force (in thousands of g) used to obtain such fraction. Data (in dpm per mg of protein) represent the mean of three independent samples with error bars showing S.D. * means p < 0.05. (C) Anion-exchange chromatography on DEAE, flow rate 5 mL/min. (D) Cation-exchange chromatography on SP, flow rate 2.5 mL/min. (E) Size exclusion chromatography on Superdex 200, flow rate 4 mL/min. Representative fractions (4-mL) from each portion of the eluates were analyzed for their binding to [^14C]-plitidepsin in the presence (grey bars, non-specific binding) or absence (black bars, total binding) of a 20-fold excess of unlabeled drug. Only fractions showing significant specific binding to the radioligand were pooled and progressed to the next chromatographic step. In all cases absorbance is expressed in mAU and conductivity in mS/cm.
# The rest of the peptides detected in this material corresponded to fragments whose sequences are common to both isoforms, thus discarding the presence of any other protein.
# After 1 h incubation at room temperature 400 μL of each tube were withdrawn and processed as described above.
# [11] = system: HeLa-APL-R cervical cancer cells (plitidepsin-resistant); design: method as in PMID 15365569; settings: 72 h, Fig. 1A, reported as previously described; cited from earlier work
# [12] = system: eEF1A2; assay: GDP/GTP exchange in eEF1A2; type: biochemical; settings: with EF1B, data not shown
# [13] = system: CHRM4 (M4 muscarinic acetylcholine receptor); assay: PathHunter acetylcholine-mediated CHRM4 activation; type: cell-based; settings: CHO-transfected cell line, preliminary, data not shown
# Description: For example, it is known that eEF1A is able to directly increase the activity of sphingosine kinase-1 (SK1), an effect that is related to oncogenesis. […] The hijacking of eEF1A with the consequent reduction of SK1 activity has already been described as a biological mechanism in dengue virus type-2 infected cells. Another example is the specific binding of eEF1A2 to the i3 loop of M4, but not M1, muscarinic acetylcholine receptor[40]. This direct interaction with M4 regulates its cell membrane density and activity. […] This is due to a specific interaction of eEF1A with aberrant polypeptides named defective ribosomal products (DRiPs) that are ligated to multi-ubiquitin chains following translation damage; eEF1A also plays a role in sensing DRiP accumulation when the proteasome is inhibited.
# [14] = system: K-562 chronic myelogenous leukemia cells; assay: Cell growth inhibition (72 h), K-562; type: cell-based; settings: K-562, 72 h
smiles,measurement,setting,value
"CC[C@H](C)[C@H]1NC(=O)[C@@H](NC(=O)[C@@H](CC(C)C)N(C)C(=O)[C@@H]2CCCN2C(=O)C(C)=O)[C@@H](C)OC(=O)[C@H](Cc2ccc(OC)cc2)N(C)C(=O)[C@@H]2CCCN2C(=O)[C@H](CC(C)C)NC(=O)[C@@H](C)C(=O)[C@H](C(C)C)OC(=O)C[C@@H]1O [plitidepsin, Plitidepsin] (Pyruvoyl-P[dNMeL]T[X1]LP[NMeY](Me); ester 3-C (inferred))","phosphorylation of p38, ERK and JNK",[1],"led to phosphorylation of p38, ERK and JNK"
same,IC50,[2],1 nM
same,additional sensitization to the drug,[3],did not show any additional sensitization
same,direct effect on SK1,[4],not due to a direct effect of the drug on SK1
same,protection of eEF1A2 from digestion by subtilisin,[5],protected eEF1A2 from digestion by subtilisin in a concentration-dependent manner
same,signaling events triggered by plitidepsin,[6],completely lost
same,effect of cytochalasin B and jasplakinolide pretreatment on apoptotic response,"[7]; 10 nM plitidepsin, actin-binding agents",prevented
same,effect of cycloheximide pretreatment on apoptotic response,"[7]; 10 nM plitidepsin, cycloheximide at concentrations that inhibit protein synthesis",not to be affected
same,apoptotic response,"[7]; human leukemic cells, 10 nM",fast and complete apoptotic response
same,IC50,[8],0.2 nM
same,sensitivity to plitidepsin after ectopic expression of eEF1A2,[9],partially recovered sensitivity; also recorded: restored the sensitivity
same,proteins detected as capable of binding plitidepsin,"[10]; K-562 lysate, MALDI-TOF/TOF identification",both isoforms of eEF1A are the only proteins
same,specific binding by size-exclusion peaks,"[10]; Superdex 200 peaks, fourth peak eluting at 80 min, ca. 50 kDa",only the fourth one
same,IC50,[11],> 100 nM
same,effect on GDP/GTP exchange in eEF1A2,[12],very modest
same,decrease of acetylcholine-mediated CHRM4 activation,[13],55%
same,IC50,[14],9.35 nM

# From PMC5054363 (Scientific Reports, 2016)
